Converted amounts (≈) assume the structure as drawn.
Question: For CC(C)C(C)O (stereo not drawn), which solubility (25 °C) is on record?
Answer: Its solubility is 635 mM (≈ 56000 µg/mL).

Question: Which solubility (25 °C) does the source give for CCCCCCCCO here?
Answer: Its solubility is 4.15 mM (≈ 540 µg/mL).

Question: Which solubility (25 °C) does the source give for CC(C)CCC(C)O (stereo not drawn) here?
Answer: The solubility was 41.9 mM (≈ 4870 µg/mL).

Question: Which solubility (25 °C) does the source give for CCCCCCCCCCO here?
Answer: The solubility was 0.234 mM (≈ 37 µg/mL).

Question: Which solubility (25 °C) does the source give for CCCCC(C)(C)O here?
Answer: Its solubility is 83.5 mM (≈ 9700 µg/mL).

Question: With CCCCC(C)(O)CC (stereo not drawn) as the compound, how does the solubility (28 °C) read?
Answer: The solubility was 23.2 mM (≈ 3020 µg/mL).

Question: For CCC[C@](C)(O)CC, which solubility (25 °C) is on record?
Answer: Its solubility is 101 mM (≈ 11700 µg/mL).

Question: With C=CC(O)C(C)C (stereo not drawn) as the compound, how does the solubility (25 °C) read?
Answer: Its solubility is 305 mM (≈ 30600 µg/mL).

Question: For CCCC(O)CCC, which solubility (25 °C) is on record?
Answer: Its solubility is 40.4 mM (≈ 4700 µg/mL).

Question: With CC(C)CCCO as the compound, how does the solubility (25 °C) read?
Answer: Its solubility is 73.4 mM (≈ 7500 µg/mL).

Question: With CCCCCC(C)(C)O as the compound, how does the solubility (30 °C) read?
Answer: The solubility was 19.1 mM (≈ 2490 µg/mL).

Question: Which solubility (25 °C) does the source give for CC(C)(C)CCCO here?
Answer: The solubility was 28.5 mM (≈ 3310 µg/mL).

Question: For CC=CC(O)CC (stereo not drawn), which solubility (25 °C) is on record?
Answer: Its solubility is 380 mM (≈ 38100 µg/mL).
